≈ marks a conversion by molar mass, not a printed value.
Tests used:
[1] = organism: Homo sapiens; experiment: Binding affinity to chloride channel (unknown origin) assessed as inhibition of control specific binding at 10 uM
[2] = target: Sodium-dependent noradrenaline transporter (Homo sapiens) (UniProt P23975); experiment: Binding affinity to human NE transporter assessed as inhibition of control specific binding at 10 uM
[3] = target: Sodium-dependent serotonin transporter (Homo sapiens) (UniProt P31645); experiment: Binding affinity to human 5-HT transporter assessed as inhibition of control specific binding at 10 uM
Chain of Sodium-dependent serotonin transporter (Homo sapiens) (P31645 whole entry, looked up): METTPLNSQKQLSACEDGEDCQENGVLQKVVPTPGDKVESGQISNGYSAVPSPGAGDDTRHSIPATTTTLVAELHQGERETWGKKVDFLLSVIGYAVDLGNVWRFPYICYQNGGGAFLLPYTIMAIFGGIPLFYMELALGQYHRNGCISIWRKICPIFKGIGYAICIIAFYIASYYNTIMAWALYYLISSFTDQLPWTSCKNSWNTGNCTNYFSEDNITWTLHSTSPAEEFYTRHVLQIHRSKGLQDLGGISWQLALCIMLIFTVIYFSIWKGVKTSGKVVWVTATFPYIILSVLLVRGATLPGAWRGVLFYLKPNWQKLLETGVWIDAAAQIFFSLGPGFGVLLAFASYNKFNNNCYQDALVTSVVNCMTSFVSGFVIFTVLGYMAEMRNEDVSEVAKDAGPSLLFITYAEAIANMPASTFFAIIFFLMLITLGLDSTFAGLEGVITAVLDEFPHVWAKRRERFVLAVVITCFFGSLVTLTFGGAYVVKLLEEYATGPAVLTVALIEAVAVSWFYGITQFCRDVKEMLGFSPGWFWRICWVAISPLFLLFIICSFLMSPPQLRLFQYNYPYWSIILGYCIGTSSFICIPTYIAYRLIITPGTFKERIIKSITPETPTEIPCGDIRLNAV

[4] = target: T1, Transient receptor potential cation channel subfamily V member 4 (Rattus norvegicus, UniProt Q9ERZ8); experiment: Antagonist activity at rat TRPV4 receptor expressed in HEK293 cells assessed as inhibition of EC80 of 4alpha-PDD-stimulated calcium flux after 10 mins; assay type: cell-based
T1 sequence (Q9ERZ8 whole entry): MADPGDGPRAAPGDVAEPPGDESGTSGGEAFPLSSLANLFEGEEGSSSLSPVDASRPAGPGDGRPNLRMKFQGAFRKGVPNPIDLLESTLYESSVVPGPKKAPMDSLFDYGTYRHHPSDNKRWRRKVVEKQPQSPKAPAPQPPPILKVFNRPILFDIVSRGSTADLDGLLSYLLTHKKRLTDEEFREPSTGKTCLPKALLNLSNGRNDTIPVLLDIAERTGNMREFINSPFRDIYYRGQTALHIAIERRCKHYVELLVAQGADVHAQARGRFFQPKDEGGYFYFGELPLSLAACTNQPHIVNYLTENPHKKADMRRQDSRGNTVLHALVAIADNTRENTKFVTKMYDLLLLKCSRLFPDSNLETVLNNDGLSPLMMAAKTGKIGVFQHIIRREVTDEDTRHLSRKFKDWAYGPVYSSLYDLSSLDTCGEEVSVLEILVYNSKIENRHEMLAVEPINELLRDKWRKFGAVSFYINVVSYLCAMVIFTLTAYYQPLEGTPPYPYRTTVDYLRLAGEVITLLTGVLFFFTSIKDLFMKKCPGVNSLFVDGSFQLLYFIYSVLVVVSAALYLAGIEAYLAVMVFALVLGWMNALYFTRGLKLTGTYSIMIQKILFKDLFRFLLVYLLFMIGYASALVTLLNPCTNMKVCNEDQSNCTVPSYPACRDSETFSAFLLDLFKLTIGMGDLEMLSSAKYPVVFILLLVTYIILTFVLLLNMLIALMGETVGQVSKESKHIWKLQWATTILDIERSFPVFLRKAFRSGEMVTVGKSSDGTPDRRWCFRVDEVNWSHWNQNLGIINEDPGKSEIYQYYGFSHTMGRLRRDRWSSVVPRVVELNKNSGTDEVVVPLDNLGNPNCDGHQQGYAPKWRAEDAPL

[5] = AUC (infinity) in Wistar rat at 1.40 mg/kg, iv; assay type: ADME, organism-based; set-up: dose 1.4 mg/kg, time infinity, route intravenous; details: in vivo, 1.4 mg/kg
[6] = Volume of distribution at steady state in Wistar rat at 1.40 mg/kg, iv; assay type: ADME, organism-based; details: in vivo, 1.4 mg/kg, read-out: Vdss
[7] = Half life in Wistar rat at 1.40 mg/kg, iv; assay type: ADME, organism-based; details: in vivo, 1.4 mg/kg
[8] = Cmax in Wistar rat at 29.73 mg/kg, po; assay type: ADME, organism-based; set-up: dose 29.73 mg/kg, route oral; details: in vivo
[9] = Solubility of the compound at pH 7.4; assay type: physicochemical; details: buffer
[10] = Plasma protein binding in rat; assay type: ADME, cell-free; details: read-out: PPB (converted)
[11] = Plasma protein binding in human; assay type: ADME, cell-free; details: read-out: PPB (converted)
[12] = target: T1, Transient receptor potential cation channel subfamily V member 4; experiment: Antagonist activity at rat TRPV4 expressed in HEK293 cells assessed as inhibition of 20% hypotonic solution-induced Ca2+ influx; assay type: cell-based
[13] = target: Transient receptor potential cation channel subfamily V member 4 (Mus musculus, UniProt Q9EPK8); experiment: Antagonist activity at mouse TRPV4 receptor expressed in HEK293 cells assessed as inhibition of 4alpha-PDD-stimulated calcium flux after 10 mins; assay type: cell-based
Chain of Transient receptor potential cation channel subfamily V member 4 (Mus musculus, UniProt Q9EPK8) (Q9EPK8 whole entry): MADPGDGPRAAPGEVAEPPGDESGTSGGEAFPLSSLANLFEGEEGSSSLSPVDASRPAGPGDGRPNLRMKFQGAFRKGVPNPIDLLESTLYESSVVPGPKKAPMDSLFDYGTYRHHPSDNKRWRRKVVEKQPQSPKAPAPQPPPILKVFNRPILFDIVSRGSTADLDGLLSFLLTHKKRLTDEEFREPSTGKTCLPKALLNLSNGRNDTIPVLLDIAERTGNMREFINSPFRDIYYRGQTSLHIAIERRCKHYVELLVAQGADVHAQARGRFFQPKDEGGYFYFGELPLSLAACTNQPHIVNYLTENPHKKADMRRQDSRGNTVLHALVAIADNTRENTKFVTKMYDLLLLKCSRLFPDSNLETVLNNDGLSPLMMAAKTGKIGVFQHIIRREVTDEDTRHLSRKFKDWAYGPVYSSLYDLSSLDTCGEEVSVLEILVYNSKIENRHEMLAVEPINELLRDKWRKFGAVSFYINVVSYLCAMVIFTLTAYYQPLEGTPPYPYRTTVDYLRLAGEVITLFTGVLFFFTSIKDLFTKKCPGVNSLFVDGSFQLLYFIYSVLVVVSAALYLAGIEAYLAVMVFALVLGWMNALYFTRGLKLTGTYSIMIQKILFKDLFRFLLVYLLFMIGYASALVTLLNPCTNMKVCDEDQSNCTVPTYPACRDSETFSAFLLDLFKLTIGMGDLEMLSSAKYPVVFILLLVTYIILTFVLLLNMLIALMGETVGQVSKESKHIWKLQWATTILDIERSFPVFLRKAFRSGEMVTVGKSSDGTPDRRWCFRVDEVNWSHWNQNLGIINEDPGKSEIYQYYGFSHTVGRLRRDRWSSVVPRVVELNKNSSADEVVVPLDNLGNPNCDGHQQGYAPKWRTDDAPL

[14] = AUC (infinity) in Wistar rat at 32.50 mg/kg, ip; assay type: ADME, organism-based; set-up: dose 32.5 mg/kg, route intraperitoneal, time infinity; details: in vivo, 32.5 mg/kg
[15] = Bioavailability in Wistar rat at 32.50 mg/kg, ip; assay type: ADME, organism-based; details: in vivo, 32.5 mg/kg
[16] = target: Adenosine receptor A1 (Homo sapiens) (UniProt P30542); experiment: Binding affinity to human adenosine A1 receptor assessed as inhibition of control specific binding at 10 uM
Chain of Adenosine receptor A1 (Homo sapiens) (P30542 whole entry): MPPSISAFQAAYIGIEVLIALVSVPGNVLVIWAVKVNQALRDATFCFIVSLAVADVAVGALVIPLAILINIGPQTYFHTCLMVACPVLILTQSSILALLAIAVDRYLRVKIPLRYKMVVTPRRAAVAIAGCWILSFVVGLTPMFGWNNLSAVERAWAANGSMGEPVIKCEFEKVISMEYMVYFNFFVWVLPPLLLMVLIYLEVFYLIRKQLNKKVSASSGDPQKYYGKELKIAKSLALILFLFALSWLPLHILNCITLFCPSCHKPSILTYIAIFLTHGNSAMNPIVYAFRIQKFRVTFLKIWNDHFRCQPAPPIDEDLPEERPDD

[17] = target: Adenosine receptor A2a (Homo sapiens) (UniProt P29274); experiment: Binding affinity to human adenosine A2A receptor assessed as inhibition of control specific binding at 10 uM
[18] = target: Adrenergic receptor alpha-1 (Homo sapiens) (UniProt P35348+P25100+P35368); experiment: Binding affinity to non-selective alpha1 adrenergic receptor (unknown origin) assessed as inhibition of control specific binding at 10 uM; assay type: protein assay
[19] = target: Beta-1 adrenergic receptor (Homo sapiens) (UniProt P08588); experiment: Binding affinity to human beta1 adrenergic receptor assessed as inhibition of control specific binding at 10 uM
[20] = organism: Homo sapiens; experiment: Binding affinity to central benzodiazepine receptor (unknown origin) assessed as inhibition of control specific binding at 10 uM
[21] = target: Cannabinoid receptor 1 (Homo sapiens) (UniProt P21554); experiment: Binding affinity to human CB1 receptor assessed as inhibition of control specific binding at 10 uM
[22] = target: GABA-A receptor; agonist GABA site (Homo sapiens) (UniProt P14867+P47870+P28472+P48169+P34903+P18505+P47869+P31644+Q16445); experiment: Binding affinity to GABAA receptor (unknown origin) assessed as inhibition of control specific binding at 10 uM; assay type: protein-complex assay
[23] = target: C-X-C chemokine receptor type 2 (Homo sapiens) (UniProt P25025); experiment: Binding affinity to human CXCR2 receptor assessed as inhibition of control specific binding at 10 uM
[24] = target: Histamine H1 receptor (Homo sapiens) (UniProt P35367); experiment: Binding affinity to human H1 receptor assessed as inhibition of control specific binding at 10 uM
[25] = target: Muscarinic acetylcholine receptor M3 (Homo sapiens) (UniProt P20309); experiment: Binding affinity to human M3 receptor assessed as inhibition of control specific binding at 10 uM
Chain of Muscarinic acetylcholine receptor M3 (Homo sapiens) (P20309 whole entry, looked up): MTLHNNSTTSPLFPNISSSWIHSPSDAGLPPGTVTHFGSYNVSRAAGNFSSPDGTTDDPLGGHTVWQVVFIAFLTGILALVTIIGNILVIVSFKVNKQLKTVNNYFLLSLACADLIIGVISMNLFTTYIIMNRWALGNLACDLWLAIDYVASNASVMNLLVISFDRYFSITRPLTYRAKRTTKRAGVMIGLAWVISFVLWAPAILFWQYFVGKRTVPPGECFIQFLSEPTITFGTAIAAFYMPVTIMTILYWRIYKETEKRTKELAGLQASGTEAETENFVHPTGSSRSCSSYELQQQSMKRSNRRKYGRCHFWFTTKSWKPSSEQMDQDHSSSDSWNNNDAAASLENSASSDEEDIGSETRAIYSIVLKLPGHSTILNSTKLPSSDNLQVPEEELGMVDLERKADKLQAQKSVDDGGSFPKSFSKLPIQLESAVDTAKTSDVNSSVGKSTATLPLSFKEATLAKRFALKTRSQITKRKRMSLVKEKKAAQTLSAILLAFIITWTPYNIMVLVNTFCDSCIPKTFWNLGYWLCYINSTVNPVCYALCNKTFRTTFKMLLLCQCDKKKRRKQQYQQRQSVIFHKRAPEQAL

[26] = target: Substance-K receptor (Homo sapiens) (UniProt P21452); experiment: Binding affinity to human NK2 receptor assessed as inhibition of control specific binding at 10 uM
[27] = target: Neuromedin-K receptor (Homo sapiens) (UniProt P29371); experiment: Binding affinity to human NK3 receptor assessed as inhibition of control specific binding at 10 uM
Chain of Neuromedin-K receptor (Homo sapiens) (P29371 whole entry): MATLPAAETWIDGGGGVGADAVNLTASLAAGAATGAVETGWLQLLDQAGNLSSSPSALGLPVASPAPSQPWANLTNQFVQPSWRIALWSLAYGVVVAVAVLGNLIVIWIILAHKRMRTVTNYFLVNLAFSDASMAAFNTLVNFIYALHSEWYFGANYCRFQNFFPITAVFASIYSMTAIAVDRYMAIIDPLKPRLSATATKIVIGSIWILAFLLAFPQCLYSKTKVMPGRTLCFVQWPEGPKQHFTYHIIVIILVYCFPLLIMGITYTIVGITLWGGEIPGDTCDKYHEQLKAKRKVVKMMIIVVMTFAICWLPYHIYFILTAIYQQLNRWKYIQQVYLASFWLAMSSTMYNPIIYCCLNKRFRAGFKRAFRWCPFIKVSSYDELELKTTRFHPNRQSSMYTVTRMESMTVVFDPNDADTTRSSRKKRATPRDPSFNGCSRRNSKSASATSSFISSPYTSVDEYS

[28] = target: Neuropeptide Y receptor type 1 (Homo sapiens) (UniProt P25929); experiment: Binding affinity to human Y1 receptor assessed as inhibition of control specific binding at 10 uM
[29] = target: Neuropeptide Y receptor type 2 (Homo sapiens) (UniProt P49146); experiment: Binding affinity to human Y2 receptor assessed as inhibition of control specific binding at 10 uM
Chain of Neuropeptide Y receptor type 2 (Homo sapiens) (P49146 whole entry): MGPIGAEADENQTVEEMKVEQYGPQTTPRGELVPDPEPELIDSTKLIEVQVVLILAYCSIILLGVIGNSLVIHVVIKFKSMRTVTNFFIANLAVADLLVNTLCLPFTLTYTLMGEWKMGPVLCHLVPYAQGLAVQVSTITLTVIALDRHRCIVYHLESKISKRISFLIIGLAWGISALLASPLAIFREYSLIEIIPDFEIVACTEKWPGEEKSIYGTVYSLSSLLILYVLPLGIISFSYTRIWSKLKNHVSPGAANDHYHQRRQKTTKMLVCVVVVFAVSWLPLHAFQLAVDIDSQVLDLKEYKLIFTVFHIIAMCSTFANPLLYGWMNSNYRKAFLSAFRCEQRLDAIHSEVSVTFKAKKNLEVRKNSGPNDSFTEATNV

[30] = target: Delta-type opioid receptor (Homo sapiens) (UniProt P41143); experiment: Binding affinity to human detla2 opioid receptor assessed as inhibition of control specific binding at 10 uM
[31] = target: Thromboxane A2 receptor (Homo sapiens) (UniProt P21731); experiment: Binding affinity to human TP receptor assessed as inhibition of control specific binding at 10 uM
[32] = target: 5-hydroxytryptamine receptor 1A (Homo sapiens) (UniProt P08908); experiment: Binding affinity to human 5-HT1A receptor assessed as inhibition of control specific binding at 10 uM
Chain of 5-hydroxytryptamine receptor 1A (Homo sapiens) (P08908 whole entry): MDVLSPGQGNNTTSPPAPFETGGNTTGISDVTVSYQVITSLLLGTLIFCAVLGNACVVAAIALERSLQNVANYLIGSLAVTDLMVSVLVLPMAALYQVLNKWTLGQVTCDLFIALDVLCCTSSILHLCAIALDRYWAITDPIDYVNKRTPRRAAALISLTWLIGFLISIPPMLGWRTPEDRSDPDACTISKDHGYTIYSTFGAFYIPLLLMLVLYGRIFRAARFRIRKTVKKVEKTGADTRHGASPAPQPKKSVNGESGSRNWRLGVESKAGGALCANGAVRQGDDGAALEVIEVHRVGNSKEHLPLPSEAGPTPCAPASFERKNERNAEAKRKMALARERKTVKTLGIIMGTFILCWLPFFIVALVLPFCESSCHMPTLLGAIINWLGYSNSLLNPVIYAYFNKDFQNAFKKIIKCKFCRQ

[33] = target: 5-hydroxytryptamine receptor 1B (Homo sapiens) (UniProt P28222); experiment: Binding affinity to human 5-HT1B receptor assessed as inhibition of control specific binding at 10 uM
[34] = target: 5-hydroxytryptamine receptor 6 (Homo sapiens) (UniProt P50406); experiment: Binding affinity to human 5-HT6 receptor assessed as inhibition of control specific binding at 10 uM
Chain of 5-hydroxytryptamine receptor 6 (Homo sapiens) (P50406 whole entry): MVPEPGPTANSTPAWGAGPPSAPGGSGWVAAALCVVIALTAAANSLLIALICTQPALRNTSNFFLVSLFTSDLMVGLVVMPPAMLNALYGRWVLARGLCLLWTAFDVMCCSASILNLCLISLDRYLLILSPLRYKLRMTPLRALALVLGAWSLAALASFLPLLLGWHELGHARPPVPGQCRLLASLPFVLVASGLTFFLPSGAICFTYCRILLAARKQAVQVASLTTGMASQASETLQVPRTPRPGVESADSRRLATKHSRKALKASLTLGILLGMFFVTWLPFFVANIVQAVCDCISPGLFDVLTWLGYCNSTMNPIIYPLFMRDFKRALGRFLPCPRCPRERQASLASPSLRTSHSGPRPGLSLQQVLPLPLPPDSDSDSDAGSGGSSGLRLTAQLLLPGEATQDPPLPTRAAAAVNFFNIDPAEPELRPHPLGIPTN

[35] = organism: Homo sapiens; experiment: Binding affinity to SST receptor (unknown origin) assessed as inhibition of control specific binding at 10 uM
[36] = target: Vasopressin V1a receptor (Homo sapiens) (UniProt P37288); experiment: Binding affinity to human V1a receptor assessed as inhibition of control specific binding at 10 uM
[37] = target: potassium channel (voltage-gated potassium channel family) (Homo sapiens, UniProt O43525+O43526+O95259+P16389+P17658+P22001+P22459+P22460+P48547+P51787+P56696+Q03721+Q09470+Q12809+Q14003+Q14721+Q16322+Q6PIU1+Q8NCM2+Q8TAE7+Q8TDN1+Q8TDN2+Q92953+Q96KK3+Q96L42+Q96PR1+Q96RP8+Q9BQ31+Q9H252+Q9H3M0+Q9NR82+Q9NS40+Q9NSA2+Q9NZV8+Q9UIX4+Q9UJ96+Q9UK17+Q9ULD8+Q9ULS6+Q9UQ05); experiment: Binding affinity to potassium channel (unknown origin) assessed as inhibition of control specific binding at 10 uM; assay type: protein assay
[38] = organism: Homo sapiens; experiment: Binding affinity to sodium channel site-2 (unknown origin) assessed as inhibition of control specific binding at 10 uM

CC(C)N1CCN(S(=O)(=O)c2ccc(NC(=O)c3ccc(C(F)(F)F)cc3[N+](=O)[O-])cc2)CC1
inhibition [1]: 24%
inhibition [2]: 4%
inhibition [3]: 6%
IC50 [4]: 0.66 µM
AUC(0-inf) [5]: 1010 ng·h/mL
Vd [6]: 1.44 L/kg
half-life [7]: 42.6 min
Cmax [8]: 3820 ng/mL
solubility [9]: 45.5 µM (≈ 22.8 µg/mL)
fraction unbound [10]: 0.01
fraction unbound [11]: 0.01
IC50 [12]: 2.1 µM
IC50 [13]: 0.057 µM
AUC(0-inf) [14]: 16500 ng·h/mL
bioavailability [15]: 75%
inhibition [16]: 2%
inhibition [17]: -7%
inhibition [18]: 6%
inhibition [19]: 4%
inhibition [20]: 9%
inhibition [21]: 3%
inhibition [22]: 3%
inhibition [23]: -4%
inhibition [24]: 4%
inhibition [25]: 21%
inhibition [26]: 15%
inhibition [27]: 2%
inhibition [28]: -8%
inhibition [29]: 1%
inhibition [30]: 6%
inhibition [31]: -6%
inhibition [32]: -4%
inhibition [33]: -2%
inhibition [34]: -2%
inhibition [35]: -1%
inhibition [36]: 1%
inhibition at 10 µM [37]: -25%
inhibition [38]: 17%

— ChEMBL document CHEMBL3612012, “Identification of orally-bioavailable antagonists of the TRPV4 ion-channel” (Bioorg Med Chem Lett, 2015)
